In one data set the target is T1, hA2A receptors (Homo sapiens, UniProt P29274).
T1 construct: purchased PerkinElmer RBHA2AM
Description: radioligand binding to human A2A receptors, HEK-293 membranes. Here is the method:
The binding affinities of synthesized compounds to human A2A receptors (hA2AR) were measured by assessing competitive binding of ligands to radioligand […] using membrane preparations of human recombinant HEK-293 cells expressing human A2A receptors.
The radioligand-binding assays for adenosine receptors were performed at Eurofins Discovery Services (Panlabs, Taiwan). Briefly, stock solutions of the compounds were prepared in DMSO and further diluted with the incubation buffer to the desired concentration. Final DMSO concentrations in the assay were 1.0%. […] Nonspecific binding was estimated in the presence of 100 μM R(-)-PIA. Membranes were filtered and washed 3 times and the filters were counted to determine specifically bound [^3H]DPCPX. Chemical compounds were screened at 10 μM. […] Nonspecific binding was estimated in the presence of 50.0 μM NECA. […] Nonspecific binding was estimated in the presence of 100 μM NECA. Membranes were filtered and washed 3 times and the filters were counted to determine [^3H]MRS1754 specifically bound. […] Nonspecific binding was estimated in the presence of 1.0 μM IB-MECA.
IC50 values were determined by a nonlinear, least-squares regression analysis using MathIQ^TM (ID Business Solutions Ltd., Guildford, UK). […] The Hill coefficient (nH), which defines the slope of the competitive binding curve, was calculated using MathIQ^TM.

Data set [1] can be described thus: metabolic stability in cryopreserved mouse hepatocytes. Here is the method:
Metabolic stability of 11o was determined in cryopreserved hepatocytes from mice, rats, dogs, monkeys and human according to the SOPs of Frontage Laboratories Inc. Briefly, cryopreserved hepatocytes for pre-clinical animals and for human (BioIVT, Westbury, NY, USA) were thawed in a 37 °C water bath with gentle shaking until ice had almost melted. The suspensions were immediately transferred to a centrifuge tube (50 mL) containing pre-warmed thawing media at 37 °C with gentle handshaking to prevent the cells from settling. Cell suspensions were centrifuged at 50× g and 4 °C for 5 min. The supernatant was discarded and the pellets were resuspended in prewarmed incubation media (5 mL) at 37 °C. The percentage of viable cells in the suspension was determined by Trypan blue staining method to ensure viability of ≥70 %. […] The samples were centrifuged and aliquots of the supernatant were analyzed for parent compounds by LC/MS/MS using suitable multiple reaction monitoring (MRM) transitions. […] The disappearance of 11o and midazolam was monitored by LC/MS/MS (MRM) analysis of the hepatocyte extracts at each time point. The peak area ratio of the analyte to internal standard was obtained for each sample and the rate of disappearance of 11o was assessed by comparing the peak area ratios at various time points to the peak area ratio obtained at t = 0. The t1/2 is obtained (using the linear portion of semi-log plot of the area ratio vs. time) and the CLint values determined using well-stirred model.

The nature of data set [2]: maximum tolerated dose, single oral administration, rat. As to conditions: both sexes, in vivo, single oral administration, male and female Sprague Dawley rats. The procedure:
(§1) Rat and dog MTD studies were performed at Frontage Laboratories Inc following testing facility’s SOPs. All procedures described were reviewed and approved by the Institutional Animal Care and Use Committee (IACUC) at Frontage Laboratories Inc.
(§2) For rat MTD study, male and female Sprague Dawley rats (Rattus norvegicus) of 8.1~9.6 weeks of age were purchased from Charles River Laboratories, USA and maintained at standard food and water ad libitum in temperature-controlled room with 12 h on-off light cycle before the experiment. Animals were acclimated to the testing facility for at least 6 to 16 days prior to initiation of dosing. Animals received a single dose of 11o in 0.5% methyl cellulose via oral gavage starting from 150 mg/kg dose level (this initial dose level was selected based on available data and the estimated toxicity using EPA’s toxicity estimation software tool (TEST) version 4.2.1) in 10 mL/kg dose volume. Subsequent doses occurred 3 or 4 days following the previous dose and were increased based on findings from the previous dosing(s). The procedure continued until four dosing events occurred. Animals were observed once in the morning and once in the afternoon throughout the study for clinical observations. Body weights were measured on the day prior to dose administration. […]

For the next data set, the system named is Sprague Dawley rats. The data set is described as above. The settings on record: in vivo, po. The procedure: as §1, §2
The subject of data set [3] is haloperidol-induced catalepsy. Description: haloperidol-induced catalepsy in female rats (bar test). The data set is classed as in vivo, Sprague Dawley rats. Here is the method: Vehicle or varying amount of 11o (0.3, 1, 3, 10 mg/kg) was administered first, followed by IP injection of 1 mg/kg haloperidol 60 min later.
A total of 120 female Sprague Dawley rats (275~300 g) were purchased from Charles River Laboratories (Charles River, Senneville, QC, Canada) and maintained at Atuka, Inc. All animal studies were conducted at Atuka, Inc. according to CCAC guidelines and under IACUC-approved Animal Use Protocols (AUPs), with IACUC number 6606.0.3 for this study.
The catalepsy study incorporated 12 groups of rats. Ten rats were incorporated into each treatment group (total N = 120 rats). Treatments were divided over 3 consecutive treatment blocks and the order of treatments were randomized within each block and all treatments completed within that block before proceeding to the next. […] Catalepsy was assessed a further 60 min later (t = 120).
Behavior was evaluated in each animal by assessing performance on the bar test. Catalepsy was assessed 60 min following haloperidol administration (120 min following administration of vehicle, 11o or istradefylline). […] The time taken for the animal to remove both paws (decent latency) from the rod and place them back on the surface, in seconds was determined. The test was conducted in triplicate and the average of the three tests were calculated.

[4] abbreviates: average of duplicate experiments.
Where [5] appears, read: CD-1, mouse, cryopreserved hepatocytes in suspension.

SMILES strings stand for the structures.

What is called IC50 is the point on the concentration scale where inhibition reaches its midpoint. Lower therefore signals inhibition by little substance. As a reminder, the Ki is the equilibrium dissociation constant of an inhibitor or competing ligand from its target. A low value points to higher affinity. A word on the CLint scaled: it is the rate of metabolic loss divided by the concentration. Read a high CLint scaled as rapid turnover. The half-life is the time needed for the level to fall by half in the phase considered. The term hepatocyte CLint denotes the rate of metabolic loss divided by the concentration. What is called MTD is the largest dose that counted as tolerated. A low value points to poorer tolerability. The ED50 is the dose that gives a 50% effect, or the effect in half of the subjects.

T1 sequence (P29274 whole entry): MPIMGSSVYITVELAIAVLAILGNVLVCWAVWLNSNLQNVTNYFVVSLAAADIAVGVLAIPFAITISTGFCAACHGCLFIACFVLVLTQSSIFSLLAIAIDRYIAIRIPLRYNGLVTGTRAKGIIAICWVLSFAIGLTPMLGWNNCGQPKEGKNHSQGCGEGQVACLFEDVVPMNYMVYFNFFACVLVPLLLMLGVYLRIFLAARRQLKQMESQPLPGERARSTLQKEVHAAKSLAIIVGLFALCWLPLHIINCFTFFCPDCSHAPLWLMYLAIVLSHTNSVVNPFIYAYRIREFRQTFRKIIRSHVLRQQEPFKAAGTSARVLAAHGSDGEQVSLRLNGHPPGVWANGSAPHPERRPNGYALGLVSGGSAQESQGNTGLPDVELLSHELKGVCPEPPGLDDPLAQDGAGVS

Take `Cc1cc(Cn2ncc3c(-c4cccc(C#N)c4F)nc(N)nc32)ccc1N` [11o, 3-(6-Amino-1-(4-amino-3-methylbenzyl)-1H-pyrazolo[3,4-d]pyrimidin-4-yl)-2-fluorobenzonitrile]: at hA2A receptors, the “nH (Hill coefficient), A2A” value is given as 0.79. At hA2A receptors (setting [4]), this molecule came in with an IC50 of 24 nM and a Ki of 13.3 nM. In data set [1] (setting [5]), this molecule showed a CLint scaled at 1 μM of 115 mL/min/kg, a half-life at 1 μM of 1.18 h and a hepatocyte CLint at 1 μM of 9.8 µL/min/1e6 cells. For the same molecule, in data set [1] (mouse hepatocytes, 1 μM 11o), the “Intrinsic Clearance” value was 0.00977 mL/min/10^6 Cells. Moreover, the MTD in data set [2] was over 1000 mg/kg. For the same molecule, the “body weight loss or mortality in rats” value in the data set with Sprague Dawley rats is listed as “no body weight loss or mortality observed”. Further, in data set [3] (0.3, 1, 3, 10 mg/kg PO, maximum effect at 10 mg/kg, comparable to istradefylline 1 mg/kg), the “reversal of haloperidol-induced catalepsy (latency to step down)” value is reported as “dose-dependently reversed haloperidol-induced catalepsy”. The ED50 in data set [3] (Rattus norvegicus, PO 60 min before haloperidol 1 mg/kg, read-out: graded ED50, reversal of haloperidol-induced catalepsy) lay in the range of 3 to 10 mg/kg.

These data come from PMC9394284, “Discovery of Novel Dual Adenosine A2A and A1 Receptor Antagonists with 1H-Pyrazolo[3,4-d]pyrimidin-6-amine Core Scaffold as Anti-Parkinson’s Disease Agents” (Pharmaceuticals, 2022).
